# Test results taken from patent publication US11407711B2, “Benzamide compound and use thereof” (METISA BIOTECHNOLOGY CO., LTD., priority 2018, dated 2022).
# Where two headings read alike, the source gives them in different places.
# Tests used:
# Format in all cases: in vivo
# Plutella xylostella = test: Insecticidal activity against Plutella xylostella (Airbrush spray on cabbage leaf discs); details: for pest or weed control at 10 µg/mL / pest or weed control at 1 µg/mL / pest or weed control at 0.5 µg/mL: Plutella xylostella, foliar, 72 h; for Fatality rate (%, 3 d after administration) 5 mg/L: Table 72, 5 mg/L; for Fatality rate (%, 3 d after administration) 0.05 mg/L: Table 74, 0.05 mg/L
# Procedure: (§1) The compound to be tested was dissolved by a mixed solvent of acetone/methanol (1:1), and then diluted by water containing 0.1% (wt) Tween 80 to the required concentration.
# (§2) An Airbrush spray method was adopted for the determination of the activity, with armyworm, Plutella xylostella and Chilo suppressalis as targets.
# Determination method: cabbage blades were punched into 2 cm (diameter) leaf discs by a puncher; with the pressure of Airbrush spray being 10 psi (about 0.7 kg/cm^2), both sides of each leaf disc were sprayed with the amount of 0.5 ml. After dried in the shade, each leaf disc was inoculated with 10 3rd-instar larvaes, 3 repeats for each leaf disc. And then, the treated leaf discs were put into an observation room (25° C., relative humidity: 60-70%) for cultivation; the number of the survivals was surveyed 1 d, 2 d and 3 d after administration, and then the death rate was calculated.
# Chilo suppressalis = test: Insecticidal activity against Chilo suppressalis (spray on rice seedlings, stems fed to larvae)
# Procedure: as §1, §2
# Determination method: 1) preparation of rice seedlings: rice was cultivated in small plastic cups (diameter: 4.5 cm and height: 4 cm) at a constant temperature room (temperature: 26-28° C., relative humidity: 60-80% around and illumination: 16 hL:8 hD), after the rice grew to a 4-5 leaf stage, vigorous and uniform-growth rice seedlings were selected and treated with an insecticide, 3 repeats for each treatment. 2) Preparation of pests for test: 3rd-instar larvaes of Chilo suppressalis fed continuously in the room. 3) Inoculation of pests on rice stems by spray. The whole plants of the rice seedlings were sprayed by a spray method uniformly, with the dose of 15 ml for each treatment. The blank control was treated first, and the above operation was repeated in an order of lower to higher test concentration. After sprayed, rice seedlings were placed in the shade to dry the insecticide liquor, and then stalks about 5 cm above the basal part of the stems were cut to be fed to the pests for test. Glass petri dishes (diameter: […]) were prepared, cushioned by filter paper at the bottom thereof, and subjected to water addition for moisturizing; about 20 pieces of rice stems were put in each dish and inoculated with 10 larvaes; then the petri dishes were closed by non-woven fabrics and placed in a constant temperature room for culture. The number of survivals was surveyed 3 d after administration.
# armyworm = test: Insecticidal activity against armyworm (Airbrush spray on maize blade segments); details: 72 h, 3 d after administration, 3rd-instar larvae, read-out: fatality rate against armyworm
# Procedure: as §1, §2
# Determination method: maize blades were cut into 2 cm (length) segments; with the pressure of Airbrush spray being 10 psi (about 0.7 kg/cm^2), both sides of each blade segment were sprayed with the amount of 0.5 ml. After dried in the shade, each segment was inoculated with 10 3rd-instar larvaes, 3 repeats for each segment. And then, the treated segments were put into an observation room (25° C., relative humidity: 60-70%) for cultivation; the number of the survivals was surveyed 1 d, 2 d and 3 d after administration, and then the death rate was calculated.
# [1] = Table 71, 10 mg/L, 3 d after administration, read-out: Fatality rate (%, 3 d after administration) 10 mg/L
# [2] = Table 73, 0.5 mg/L, 3 d after administration
# [3] = Table 72, 1 mg/L, 3 d after administration
# [4] = Table 73, 1 mg/L, 3 d after administration
# [5] = Table 74, 0.5 mg/L, 3 d after administration
# [6] = Table 73, 0.5 mg/L, 3 d after administration, read-out: Fatality rate (%, 3 d after administration) 0.5 mg/L
# [7] = Table 73, 1 mg/L, 3 d after administration, read-out: Fatality rate (%, 3 d after administration) 1 mg/L
# [8] = Table 75, fast-acting efficacy, dose 0.5 mg/L
# [9] = Table 76, fast-acting efficacy, dose 0.05 mg/L
structure (smiles),measurement,setting,value
"COCN(C(=O)c1ccccc1)c1cccc(C(=O)N(C)c2c(C)cc(C(F)(C(F)(F)F)C(F)(F)F)cc2C)c1 [CK1, reference compound]",pest or weed control at 10 µg/mL,Plutella xylostella; [1],0%
"COCN(C(=O)c1ccccc1)c1cccc(C(=O)Nc2c(C)cc(C(F)(C(F)(F)F)C(F)(F)F)cc2C)c1 [CK2, reference compound]",pest or weed control at 10 µg/mL,Plutella xylostella; [1],0%
"Cc1cc(C(F)(C(F)(F)F)C(F)(F)F)cc(C)c1NC(=O)c1cccc(N(C#N)C(=O)c2ccccc2)c1 [CK3, reference compound]",pest or weed control at 10 µg/mL,Plutella xylostella; [1],0%
"NC(=O)CCN(C(=O)c1ccccc1)c1cccc(C(=O)N(CCC(N)=O)c2c(Br)cc(C(F)(C(F)(F)F)C(F)(F)F)cc2C(F)(F)F)c1F [CK4, reference compound]",pest or weed control at 10 µg/mL,"Plutella xylostella; read-out: Fatality rate (%, 3 d after administration) 10 mg/L, Table 71, 10 mg/L, 3 d after administration",0%
"NC(=O)CCN(C(=O)c1ccccc1)c1cccc(C(=O)N(CCC(N)=O)c2c(Br)cc(C(F)(C(F)(F)F)C(F)(F)F)cc2C(F)(F)F)c1F [CK5, reference compound]",pest or weed control at 1 µg/mL,"Plutella xylostella; read-out: Fatality rate (%, 3 d after administration) 1 mg/L, Table 72, 1 mg/L, 3 d after administration",0%
same,"Fatality rate (%, 3 d after administration) 5 mg/L",Plutella xylostella; 3 d after administration,63.5%
"NC(=O)CCN(C(=O)c1ccccc1)c1cccc(C(=O)N(CCC(N)=O)c2c(Br)cc(C(F)(C(F)(F)F)C(F)(F)F)cc2C(F)(F)F)c1F [CK6, reference compound]",pest or weed control at 1 µg/mL,"Plutella xylostella; read-out: Fatality rate (%, 3 d after administration) 1 mg/L, Table 73, 1 mg/L, 3 d after administration",68%
same,"Fatality rate (%, 3 d after administration) 0.5 mg/L",Plutella xylostella; [2],10%
"NC(=O)CCN(C(=O)c1ccccc1)c1cccc(C(=O)N(CCC(N)=O)c2c(Br)cc(C(F)(C(F)(F)F)C(F)(F)F)cc2C(F)(F)F)c1F [CK7, reference compound]",pest or weed control at 0.5 µg/mL,"Plutella xylostella; read-out: Fatality rate (%, 3 d after administration) 0.5 mg/L, Table 74, 0.5 mg/L, 3 d after administration",70%
same,"Fatality rate (%, 3 d after administration) 0.05 mg/L",Plutella xylostella; 3 d after administration,0%
"NC(=O)CCN(C(=O)c1ccccc1)c1cccc(C(=O)N(CCC(N)=O)c2c(Br)cc(C(F)(C(F)(F)F)C(F)(F)F)cc2C(F)(F)F)c1F [CK8, reference compound]","Fatality rate (%, 3 d after administration) 1 mg/L",Plutella xylostella; [3],0%
same,"Fatality rate (%, 3 d after administration) 5 mg/L",Plutella xylostella; 3 d after administration,65.8%
"NC(=O)CCN(C(=O)c1ccccc1)c1cccc(C(=O)N(CCC(N)=O)c2c(Br)cc(C(F)(C(F)(F)F)C(F)(F)F)cc2C(F)(F)F)c1F [CK9, reference compound]","Fatality rate (%, 3 d after administration) 0.5 mg/L",Plutella xylostella; [2],0%
same,"Fatality rate (%, 3 d after administration) 1 mg/L",Plutella xylostella; [4],55%
"NC(=O)CCN(C(=O)c1ccccc1)c1cccc(C(=O)N(CCC(N)=O)c2c(Br)cc(C(F)(C(F)(F)F)C(F)(F)F)cc2C(F)(F)F)c1F [CK10, reference compound]","Fatality rate (%, 3 d after administration) 0.5 mg/L",Plutella xylostella; [2],0%
same,"Fatality rate (%, 3 d after administration) 1 mg/L",Plutella xylostella; [4],55%
"NC(=O)CCN(C(=O)c1ccccc1)c1cccc(C(=O)N(CCC(N)=O)c2c(Br)cc(C(F)(C(F)(F)F)C(F)(F)F)cc2C(F)(F)F)c1F [CK11, reference compound]","Fatality rate (%, 3 d after administration) 0.05 mg/L",Plutella xylostella; 3 d after administration,0%
same,"Fatality rate (%, 3 d after administration) 0.5 mg/L",Plutella xylostella; [5],75%
"NC(=O)CCN(C(=O)c1ccccc1)c1cccc(C(=O)N(CCC(N)=O)c2c(Br)cc(C(F)(C(F)(F)F)C(F)(F)F)cc2C(F)(F)F)c1F [CK12, reference compound]","Fatality rate (%, 3 d after administration) 1 mg/L",Plutella xylostella; [3],0%
same,"Fatality rate (%, 3 d after administration) 5 mg/L",Plutella xylostella; 3 d after administration,60%
"NC(=O)CCN(C(=O)c1ccccc1)c1cccc(C(=O)N(CCC(N)=O)c2c(Br)cc(C(F)(C(F)(F)F)C(F)(F)F)cc2C(F)(F)F)c1F [CK13, reference compound]","Fatality rate (%, 3 d after administration) 0.5 mg/L",Plutella xylostella; [2],0%
same,"Fatality rate (%, 3 d after administration) 1 mg/L",Plutella xylostella; [4],75%
"NC(=O)CCN(C(=O)c1ccccc1)c1cccc(C(=O)N(CCC(N)=O)c2c(Br)cc(C(F)(C(F)(F)F)C(F)(F)F)cc2C(F)(F)F)c1F [CK14, reference compound]","Fatality rate (%, 3 d after administration) 0.05 mg/L",Plutella xylostella; 3 d after administration,0%
same,"Fatality rate (%, 3 d after administration) 0.5 mg/L",Plutella xylostella; [5],60%
"O=C(Nc1cccc(C(=O)Nc2c(Br)cc(C(F)(C(F)(F)F)C(F)(F)F)cc2Br)c1F)c1ccccc1 [CK15, reference compound]","Fatality rate (%, 3 d after administration) 1.25 mg/L","Chilo suppressalis; Table 77, 1.25 mg/L, 3 d after administration",8.6%
same,"Fatality rate (%, 3 d after administration) 2.5 mg/L","Chilo suppressalis; Table 77, 2.5 mg/L, 3 d after administration",22.2%
same,"Fatality rate (%, 3 d after administration) 5 mg/L","Chilo suppressalis; Table 77, 5 mg/L, 3 d after administration",50.3%
same,pest or weed control at 0.5 µg/mL,Plutella xylostella; [6],50%
same,pest or weed control at 1 µg/mL,Plutella xylostella; [7],90%
same,Fatality rate (%) 1 d after administration,Plutella xylostella; [8],0%
same,Fatality rate (%) 2 d after administration,Plutella xylostella; [8],30%
same,Fatality rate (%) 3 d after administration,"Plutella xylostella; Table 75, fast-acting efficacy, dose 0.5 mg/L, 3 d after administration",50%
"CN(C(=O)c1ccccc1)c1cccc(C(=O)Nc2c(Br)cc(C(F)(C(F)(F)F)C(F)(F)F)cc2C(F)(F)F)c1F [CK16, broflanilide, reference compound]","Fatality rate (%, 3 d after administration) 0.625 mg/L","Chilo suppressalis; Table 78, 0.625 mg/L, 3 d after administration",10%
same,"Fatality rate (%, 3 d after administration) 1.25 mg/L","Chilo suppressalis; Table 78, 1.25 mg/L, 3 d after administration",60.3%
same,"Fatality rate (%, 3 d after administration) 2.5 mg/L","Chilo suppressalis; Table 78, 2.5 mg/L, 3 d after administration",85.5%
same,pest or weed control at 0.5 µg/mL,"Plutella xylostella; Table 74, 0.5 mg/L, 3 d after administration, read-out: Fatality rate (%, 3 d after administration) 0.5 mg/L",100%
same,"Fatality rate (%, 3 d after administration) 0.05 mg/L",Plutella xylostella; 3 d after administration,80.8%
same,Fatality rate (%) 1 d after administration,Plutella xylostella; [9],0%
same,Fatality rate (%) 2 d after administration,Plutella xylostella; [9],52.5%
same,Fatality rate (%) 3 d after administration,"Plutella xylostella; Table 76, fast-acting efficacy, dose 0.05 mg/L, 3 d after administration",80.8%
N#CCN(C(=O)c1ccc(F)cc1)c1cccc(C(=O)Nc2c(Br)cc(C(F)(C(F)(F)F)C(F)(F)F)cc2Br)c1F [Compound 2.7],pest or weed control at 0.05 µg/mL,armyworm; 0.05 mg/L,≥ 90%
same,pest or weed control at 0.1 µg/mL,armyworm; 0.1 mg/L,≥ 90%
same,pest or weed control at 0.5 µg/mL,armyworm; 0.5 mg/L,≥ 90%
same,pest or weed control at 1 µg/mL,"Chilo suppressalis; Chilo suppressalis, 72 h, 1 mg/L, survivals surveyed 3 d after administration, read-out: fatality rate against Chilo suppressalis",≥ 90%
same,pest or weed control at 4 µg/mL,"Chilo suppressalis; Chilo suppressalis, 72 h, 4 mg/L, survivals surveyed 3 d after administration, read-out: fatality rate against Chilo suppressalis",≥ 90%
same,pest or weed control at 40 µg/mL,"Chilo suppressalis; Chilo suppressalis, 72 h, 40 mg/L, survivals surveyed 3 d after administration, read-out: fatality rate against Chilo suppressalis",≥ 90%
same,pest or weed control at 0.5 µg/mL,"Plutella xylostella; 0.5 mg/L, 3 d after administration, read-out: fatality rate against Plutella xylostella",≥ 90%
same,pest or weed control at 1 µg/mL,"Plutella xylostella; 1 mg/L, 3 d after administration, read-out: fatality rate against Plutella xylostella",≥ 90%
same,pest or weed control at 10 µg/mL,Plutella xylostella; [1],100%
same,pest or weed control at 0.5 µg/mL,Plutella xylostella; [6],100%
same,pest or weed control at 1 µg/mL,Plutella xylostella; [7],100%
